Assay results from patent US11332459B2 (TEIJIN PHARMA LIMITED, priority 2017, dated 2022).
Where a name gives a salt, the structure may show the parent alone.

molecular target: T1, human TRPC6 (Homo sapiens, UniProt Q9Y210); assay: TRPC6 calcium flux assay (FLIPR, OAG-stimulated calcium influx); assay type: cell-based; conditions: HEK293 cells stably transfected with human TRPC6, read-out: hTRPC6 Potency
T1 construct: expressed in transfected cells
T1 sequence (Q9Y210 1-931): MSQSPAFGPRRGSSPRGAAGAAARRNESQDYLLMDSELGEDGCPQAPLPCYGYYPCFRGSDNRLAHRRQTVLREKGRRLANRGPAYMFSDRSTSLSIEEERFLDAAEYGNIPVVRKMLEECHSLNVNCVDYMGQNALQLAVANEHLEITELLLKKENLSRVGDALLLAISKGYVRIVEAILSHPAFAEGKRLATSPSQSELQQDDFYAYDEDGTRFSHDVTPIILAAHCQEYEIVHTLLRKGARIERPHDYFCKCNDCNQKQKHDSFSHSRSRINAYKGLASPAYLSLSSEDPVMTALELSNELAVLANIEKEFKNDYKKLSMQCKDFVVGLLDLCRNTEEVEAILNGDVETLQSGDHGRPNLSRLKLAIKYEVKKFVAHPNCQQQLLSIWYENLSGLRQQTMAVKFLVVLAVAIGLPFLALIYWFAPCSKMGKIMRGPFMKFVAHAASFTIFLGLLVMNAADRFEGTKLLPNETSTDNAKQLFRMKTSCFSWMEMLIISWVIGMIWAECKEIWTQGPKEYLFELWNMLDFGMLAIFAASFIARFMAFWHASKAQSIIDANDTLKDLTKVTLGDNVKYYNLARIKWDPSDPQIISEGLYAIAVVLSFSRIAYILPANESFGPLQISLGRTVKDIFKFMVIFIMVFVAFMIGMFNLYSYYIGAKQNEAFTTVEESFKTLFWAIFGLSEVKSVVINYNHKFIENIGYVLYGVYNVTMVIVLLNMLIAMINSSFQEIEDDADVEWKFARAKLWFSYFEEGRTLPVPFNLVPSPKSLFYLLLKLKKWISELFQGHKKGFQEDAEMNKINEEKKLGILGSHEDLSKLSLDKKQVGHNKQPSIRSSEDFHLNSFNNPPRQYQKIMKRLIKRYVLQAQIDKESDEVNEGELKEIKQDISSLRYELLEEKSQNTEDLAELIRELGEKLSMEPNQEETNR
How it was run: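 HEK293 cells stably expressing human TRPC6, loaded with calcium dye 90–120 min at RT, then given compound for 25 min before OAG (50 uM final, 0.5% DMSO) in HEPES buffer pH 7.2 with 2 mM CaCl2. Background-subtracted FLIPR peak over 180 s normalized to OAG vs buffer; IC50 from dose plot.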

First: N#Cc1ccc(Cn2c(N3C[C@@H](N)CC(F)(F)C3)nc3ccccc32)nc1 [Example 17, (S)-6-((2-(5-amino-3,3-difluoropiperidin-1-yl)-1H-benzo[d]imidazol-1-yl)methyl)nicotinonitrile]
Second: N#Cc1ccc(Cn2c(N3CCC(F)(F)[C@H](N)C3)nc3ccc(Cl)cc32)nc1 [Example 12, (R)-6-((2-(3-amino-4,4-difluoropiperidin-1-yl)-6-chloro-1H-benzo[d]imidazol-1-yl)methyl)nicotinonitrile]
The IC50 of the first is 410-fold higher: 0.118 µM for the first, 0.000285 µM for the second. The second is the more potent here.

Going from `CN(C)C(=O)Cn1c(N2CC[C@@H](F)[C@H](N)C2)nc2ccc(OC(F)(F)F)cc21` [Example 468, 2-(2-((3R,4R)-3-amino-4-fluoropiperidin-1-yl)-6-(trifluoromethoxy)-1H-benzo[d]imidazol-1-yl)-N,N-dimethylacetamide] to `CN(C)C(=O)Cn1c(N2CC[C@@H](F)[C@H](N)C2)nc2c(F)cc(F)cc21` [Example 565, 2-(2-((3R,4R)-3-amino-4-fluoropiperidin-1-yl)-4,6-difluoro-1H-benzo[d]imidazol-1-yl)-N,N-dimethylacetamide], the IC50 falls from 0.178 µM to 0.0322 µM (5.5-fold).

Compared with `C[C@H](C#N)N(C)C(=O)Cn1c(N2CC[C@@H](F)[C@H](N)C2)nc2cc(F)c(F)cc21` [Example 603, 2-(2-((3R,4R)-3-amino-4-fluoropiperidin-1-yl)-5,6-difluoro-1H-benzo[d]imidazol-1-yl)-N-((R)-1-cyanoethyl)-N-methylacetamide], `CN(CC(F)(F)F)C(=O)Cn1c(N2CC[C@@H](F)[C@H](N)C2)nc2cc(F)c(F)cc21` (single isomer, unassigned) [Example 635] is 45-fold higher in IC50: 0.00673 µM for the first, 0.304 µM for the second. The first is the more potent here.

First: Cc1nnc(Cn2c(N3CC[C@@H](F)[C@H](N)C3)nc3cc(F)c(F)cc32)s1 [Example 553, (3R,4R)-1-(5,6-difluoro-1-((5-methyl-1,3,4-thiadiazol-2-yl)methyl)-1H-benzo[d]imidazol-2-yl)-4-fluoropiperidin-3-amine]
Second: N#Cc1cc(Cl)ccc1Cn1c(N2CC[C@@H](F)[C@H](N)C2)nc2cc(F)c(F)cc21 [Example 340, 2-((2-((3R,4R)-3-amino-4-fluoro-1-piperidinyl)-5,6-difluoro-1H-benzimidazol-1-yl)methyl)-5-chlorobenzonitrile]
The IC50 of the first is 9.5-fold higher: 0.00669 µM for the first, 0.000704 µM for the second. The second is the more potent here.

Compared with `N[C@@H]1CN(c2nc3cc(F)c(F)cc3n2CC(=O)N(Cc2cccs2)C2CCS(=O)(=O)C2)CC[C@H]1F` (mixture of isomers) [Example 522, 2-(2-((3R,4R)-3-amino-4-fluoropiperidin-1-yl)-5,6-difluoro-1H-benzo[d]imidazol-1-yl)-N-(1,1-dioxidotetrahydrothiophen-3-yl)-N-(thiophen-2-ylmethyl)acetamide], `CNC(=O)C1CCCN(C(=O)Cn2c(N3CC[C@@H](F)[C@H](N)C3)nc3cc(F)c(F)cc32)C1` (stereo partly drawn) [Example 654, 1-(2-(2-((3R,4R)-3-amino-4-fluoropiperidin-1-yl)-5,6-difluoro-1H-benzo[d]imidazol-1-yl)acetyl)-N-methylpiperidine-3-carboxamide] is higher in IC50: 0.762 µM for the first, > 3.75 µM for the second. The first is the more potent here.

Compared with `CN(CC(F)(F)F)C(=O)Cn1c(N2CCC(F)(CN)C2)nc2ccc(F)cc21` (centres unmarked) [Example 486, 2-(2-(3-(aminomethyl)-3-fluoropyrrolidin-1-yl)-6-fluoro-1H-benzo[d]imidazol-1-yl)-N-methyl-N-(2,2,2-trifluoroethyl)acetamide], `Cc1nc(C)c(Cn2c(N3CC[C@@H](F)[C@H](N)C3)nc3ccc(F)cc32)s1` [Example 589, (3R,4R)-1-(1-((2,4-dimethylthiazol-5-yl)methyl)-6-fluoro-1H-benzo[d]imidazol-2-yl)-4-fluoropiperidin-3-amine] is lower in IC50: > 1.75 µM for the first, 1.01 µM for the second.

`Cc1ccc(Cn2c(N3CCC[C@@H](N)C3)nc3ccccc32)cc1` [Example 386, (R)-1-(1-(4-methylbenzyl)-1H-benzo[d]imidazol-2-yl)piperidin-3-amine] and `N[C@@H]1CCCN(c2nc3ccccc3n2Cc2ccc(F)c(F)c2)C1` [Example 390, (R)-1-(1-(3,4-difluorobenzyl)-1H-benzo[d]imidazol-2-yl)piperidin-3-amine] are within 1.5-fold of each other in IC50: 4.26 µM for the first, 3.57 µM for the second.

First: CO[C@H]1CCN(c2nc3ccc(F)cc3n2Cc2ncc(Cl)cn2)C[C@H]1N [Example 467, (3R,4S)-1-(1-((5-chloropyrimidin-2-yl)methyl)-6-fluoro-1H-benzo[d]imidazol-2-yl)-4-methoxypiperidin-3-amine]
Second: CO[C@@H]1CCN(c2nc3ccc(F)cc3n2Cc2ncc(Cl)cn2)C[C@H]1N [Example 454, (3R,4R)-1-(1-((5-chloropyrimidin-2-yl)methyl)-6-fluoro-1H-benzo[d]imidazol-2-yl)-4-methoxypiperidin-3-amine]
The IC50 of the first is 81-fold higher: 0.123 µM for the first, 0.00152 µM for the second. The second is the more potent here.

First: N[C@@H]1CN(c2nc3cc(Cl)ccc3n2CC(=O)N2CCOCC2)CC[C@H]1F [Example 497, -(2-((3R,4R)-3-amino-4-fluoropiperidin-1-yl)-5-chloro-1H-benzo[d]imidazol-1-yl)-1-morpholinoethanone]
Second: COc1cnc(Cn2c(N3CC[C@@H](F)[C@H](N)C3)nc3cc(F)ccc32)nc1 [Example 446, (3R,4R)-4-fluoro-1-(5-fluoro-1-((5-methoxypyrimidin-2-yl)methyl)-1H-benzo[d]imidazol-2-yl)piperidin-3-amine]
The IC50 of the first is 2.8-fold higher: 0.094 µM for the first, 0.034 µM for the second.

Going from `N#Cc1cnc(Cn2c(N3CCC(F)(F)[C@H](N)C3)nc3cc(Cl)ccc32)cn1` [Example 234, (R)-5-((2-(3-amino-4,4-difluoropiperidin-1-yl)-5-chloro-1H-benzo[d]imidazol-1-yl)methyl)pyrazine-2-carbonitrile] to `N#Cc1cnc(Cn2c(N3CC[C@@H](F)[C@H](N)C3)nc3c(F)cc(F)cc32)cn1` [Example 251, 5-((2-((3R,4R)-3-amino-4-fluoro-1-piperidinyl)-4,6-difluoro-1H-benzimidazol-1-yl)methyl)-2-pyrazinecarbonitrile], the IC50 falls from 0.0269 µM to 0.0172 µM (1.6-fold).

Compared with `CN[C@@H]1CN(c2nc3cc(F)cc(F)c3n2[C@@H](C)c2ccc(C#N)cn2)CC[C@H]1F` (single isomer, unassigned) [Example 441], `C[C@@H](c1ccc(C#N)cn1)n1c(N2CC[C@@H]3OCCN[C@H]3C2)nc2cc(F)cc(F)c21` [Example 273, 6-((1S)-1-(5,7-difluoro-2-((4aS,8aS)-hexahydro-2H-pyrido[4,3-b][1,4]oxazin-6(5H)-yl)-1H-benzimidazol-1-yl)ethyl)-3-pyridinecarbonitrile] is 6.1-fold higher in IC50: 0.00224 µM for the first, 0.0137 µM for the second. The first is the more potent here.

Compared with `N#Cc1ccc2nc(N3CC[C@@H](F)[C@H](N)C3)n(Cc3ncc(Br)cn3)c2c1` [Example 200, 2-((3R,4R)-3-amino-4-fluoropiperidin-1-yl)-1-((5-bromopyrimidin-2-yl)methyl)-1H-benzo[d]imidazole-6-carbonitrile], `COc1cnc(Cn2c(N3CC[C@@H](F)[C@H](N)C3)nc3ccc(C#N)cc32)nc1` [Example 242, 2-((3R,4R)-3-amino-4-fluoropiperidin-1-yl)-1-((5-methoxypyrimidin-2-yl)methyl)-1H-benzo[d]imidazole-6-carbonitrile hydrochloride] is 34-fold higher in IC50: 0.00218 µM for the first, 0.0735 µM for the second.

Compared with `C[C@@H](c1ccccc1Cl)n1c(N2CC[C@@H](F)[C@H](N)C2)nc2cc(F)c(F)cc21` [Example 325, (3R,4R)-1-(1-((1S)-1-(2-chlorophenyl)ethyl)-5,6-difluoro-1H-benzimidazol-2-yl)-4-fluoro-3-piperidinamine], `N[C@@H]1CN(c2nc3cc(F)c(F)cc3n2Cc2ccccc2OC(F)F)CC[C@H]1F` [Example 348, (3R,4R)-1-(1-(2-(difluoromethoxy)benzyl)-5,6-difluoro-1H-benzimidazol-2-yl)-4-fluoro-3-piperidinamine] is 1.5-fold lower in IC50: 0.743 µM for the first, 0.493 µM for the second. The second is the more potent here.

`C[C@@H](c1ccc(C#N)cc1)n1c(N2CCC[C@H](N)C2)nc2ccccc21` [Example 314, 4-((S)-1-(2-((S)-3-aminopiperidin-1-yl)-1H-benzo[d]imidazol-1-yl)ethyl)benzonitrile hydrochloride] and `N#Cc1ccc(Cn2c(N3CCC[C@]4(CCCN4)C3)nc3ccccc32)nc1` [Example 135, 6-((2-((5R)-1,7-diazaspiro[4.5]decan-7-yl)-1H-benzimidazol-1-yl)methyl)-3-pyridinecarbonitrile] cannot be ordered by IC50: > 50 µM for the first, > 3.75 µM for the second.

`N[C@@H]1CN(c2nc3ccc(F)cc3n2Cc2ncc(Cl)cn2)CC[C@H]1O` [Example 205, (3R,4R)-3-amino-1-(1-((5-chloropyrimidin-2-yl)methyl)-6-fluoro-1H-benzo[d]imidazol-2-yl)piperidin-4-ol] was tested, and the IC50 was 0.003 µM.
